Results published in patent US6303366A, “Biodegradation of the gasoline oxygenates” (Envirogen, Inc., priority 1999, dated 2001).

Experiments:
[1] = tested on: strain ENV425; assay: Growth studies on MTBE pathway intermediates; type: cell-based, Nocardia
[2] = tested on: M. vaccae JOB5; assay: Gas chromatography degradation assay, washed cells; type: cell-based, Mycobacterium vaccae; settings: for % Degraded: 30 mg/l, 24 hours, OD550 1.0
Method: (§1) Propane-oxidizing microorganisms were grown as described above on either propane, isopropanol, ethanol or acetone, to a cell density of OD550≥0.5. The cells were then collected by centrifugation, washed with BSM, and suspended to an OD550 of 1.0. […] The vials were sealed with Teflon-lined septa and crimp seals and incubated with shaking (250 rpm) at 30° C. for at least 24 hr. Control samples were prepared by adding 50 μl of 10 mM HgCl2 to replicate vials. HgCl2 killed the microorganisms present in the vials allowing these vials to serve as controls. At pre-determined time points, 50 μl of 10 mM HgCl2 were added to the incubating sample to stop the reaction or a sub-sample of the incubating sample was removed for analysis. Degradation of MTBE, ETBE or tert-butyl alcohol (TBA) was measured by gas chromatography.
(§2) Gas chromatography was performed by first removing cells from the samples by centrifugation of the sample vial or the sub-sample. A pre-sealed 2-ml autosampler vial was partially evacuated by inserting a syringe needle through the septa and removing 500 μl of air. Five hundred μl of the clear supernatant fraction of the cell culture were then injected into the vial. The samples were then analyzed by injecting 1 μl of the sample directly into a Varians Model 3400 gas chromatograph equipped with a 30 m Vocol capillary column (Supelco) and a flame ionization detector. The column, injector, and detector were maintained isocratically at 80° C., 200° C., and 225° C., respectively. Standard curves of each compound were generated with aqueous standards of 10 ppm, 25 ppm, 50 ppm, and 100 ppm.

[3] = tested on: ENV425; assay: Gas chromatography degradation assay, washed cells; type: cell-based, Nocardia; settings: 30 mg/l, 24 hours, OD550 1.0
Method: as §1, §2

[4] = tested on: ENV420; assay: Gas chromatography degradation assay, washed cells; type: cell-based; settings: 30 mg/l, 24 hours, OD550 1.0
Method: as §1, §2

[5] = tested on: ENV425; assay: [^14 C]MTBE assay; type: cell-based, Nocardia
[6] = tested on: M. vaccae JOB5; assay: [^14 C]MTBE assay; type: cell-based, Mycobacterium vaccae; settings: propane-grown, OD550 1.0, overnight, 0.5 μCi [^14 C]MTBE (2 μM MTBE)
[7] = tested on: TXR mixed culture of naturally-occurring propane-oxidizing bacteria; assay: [^14 C]MTBE assay; type: cell-based; settings: propane-grown, OD550 1.0, overnight, 0.5 μCi [^14 C]MTBE (2 μM MTBE)
[8] = tested on: anaerobic sediment samples; settings: the one active sample; more than 152 days of incubation; cited from earlier work
[9] = rat model studies; oral; cited from earlier work
[10] = tested on: ENV425; assay: Field-scale membrane bioreactor treating MTBE-contaminated groundwater; design: species or system Nocardia; settings: for % Removed: continuous operation
Description: Propane oxidizing bacteria were deployed in a field-scale membrane bioreactor (MBR) system to treat MTBE-contaminated groundwater at an oil refinery. An MBR is a type of suspended growth reactor.
The MBR system used in the present example consisted of a 1000-gallon tank equipped with a variable speed mixer, an air diffuser capable of providing up to 600 ft^3 of air per hour, an automated pH controller, and nutrient and caustic feed systems. Soda ash was used to control pH, and a soluble fertilizer, in this case fish oil emulsion, was used as a nutrient. (Other types of soluble agricultural fertilizer can be used to supply nutrients.) The weight ratio of the nutrient comprised approximately 100 parts carbon:10 parts nitrogen:1 part phosphate. The fertilizer was added continuously to the influent contaminant stream by using a LMI model A771-152S chemical metering pump. The liquid level in the reactor was controlled by using two Dwyer model 603-A level transmitters set to maintain a reactor liquid volume of from 700 to 900 gallons.
The pH was monitored and controlled by using a Rosemount model 1055APH pH analyzer/controller and a Rosemount model 385-2-8-54 pH sensor that measured pH in the reactor. Caustic was added to the influent feed line by using an LMI model A771-152S chemical metering pump. Effluent from the reactor was passed over dual ultrafiltration membranes (Rhone Poulenc model SC37/KO9; 17.22 ft^2 of membrane surface) connected in series, then into a proof tank and then a holding tank prior to discharge into the plant's sewer system.
Operation of the reactor system was initiated by adding 225 gallons of water to the reactor and then adding concentrated BSM solution (see above) to the reactor to create a liquid concentration of 1×BSM. Twenty liters of frozen propane-grown ENV425 that had been grown in a laboratory fermentor in BSM medium with propane as a sole source of carbon and energy was frozen prior to shipment, then thawed and added directly to the water in the reactor. […] After addition to the reactor, the ENV425 was mixed well until dispersed. Then, 1.1 L of isopropanol were added while the reactor was mixing. The reactor was operated for 1.5 days until the culture became turbid. The reactor volume was then increased to 800 gallons, additional BSM was added to a final concentration of 1×BSM and an additional 3.8 L of isopropanol were added.
This initial operation was termed the "batch phase" and was used to ensure equilibration of the reactor prior to initiating continuous feed operation.
Reactor effluent was passed over the ultrafiltration membranes and retenate, containing the propane-oxidizing bacteria, was returned to the reactor. Filtrate was passed to the proof tank, and a portion of the filtrate was pumped back into the reactor to maintain an appropriate liquid volume. This was done because the flux through the membrane (40 gal./day/ft^2 of membrane) was greater than the feed rate to the reactor. Some of the return liquid passed through a spray nozzle at the top of the reactor to control reactor foaming. […] Additionally, periodic samples of the reactor headspace were sampled to estimate MTBE stripping in the reactor.
Isopropanol was used to rapidly increase biomass in the reactor and to maintain high levels of activity by the propane-oxidizing bacteria.

[11] = tested on: Acetobacterium woodii; settings: anaerobic; cited from earlier work
[12] = tested on: Eubacterium limosum; settings: anaerobic; cited from earlier work
[13] = tested on: strain ENV425; assay: Laboratory-scale membrane bioreactor degradation of MTBE; design: species or system Nocardia
Method: The BSM feed rate was 1.7 ml/min. to create a hydraulic residence time in the reactor of 2.5 days. The effluent of the reactor passed over the surface of a 100,000 mwt ultra filtration membrane (Model CR250; Raisio Flootek, Molmo, Sweden), at a flow rate of 1.2 to 2.2 ml/min at a pressure of from 1 to 1.5 psi. The retenate containing cells were passed back into the reactor, and the filtrate was discarded as the treated effluent. The reactor was operated at 30° C. at a pH of 7. […] Oxygen concentration within the reactor was monitored by using an Ingold […] and a Cole Palmer model 01971-00 oxygen monitor, and oxygen concentration was maintained at >1% air saturation by adding air or oxygen directly to the reactor.

[14] = tested on: ENV425; assay: Degradation of tetrahydrofuran; type: cell-based, Nocardia; settings: propane-grown; OD550 2.0; 40 mg/L; 48 hours; room temperature
Method: (§3) To test the ability of propane oxidizing bacteria to degrade other environmentally-significant ether pollutants, ENV425 and a mixed culture of propane oxidizing bacteria from a laboratory bioreactor were incubated with tetrahydrofuran, and the degradation of tetrahydrofuran was measured after 48 hours. Cells of ENV425 and a mixed bioreactor culture of propane-oxidizing bacteria (termed "TXR") were grown in BSM medium with propane as the sole source of carbon and energy, collected by centrifugation, washed with BSM, and suspended in BSM to an optical density at 550 nm of 2.0. Five ml of the cell suspensions were added to 15 mL serum vials, and the vials were sealed with Teflon-lined septa and crimp tops. Vials containing BSM but no cells served as controls. Tetrahydrofuran was injected through the septa to create a final liquid concentration of 40 mg/L. The vials were then incubated at room temperature for 48 hours and analyzed by gas chromatography of subsamples of the vial headspace gas. Gas chromatography was performed as described for MTBE analysis.

[15] = tested on: mixed culture of propane-oxidizing bacteria (TXR); assay: Degradation of tetrahydrofuran; type: cell-based; settings: propane-grown; OD550 2.0; 40 mg/L; 48 hours; room temperature
Method: as §3

Structure (SMILES): CC(C)(O)C(=O)O [HIBA, 2-hydroxy isobutyric acid]
- growth of strain ENV425 on the substance [1]: does not grow well

Structure (SMILES): CC(O)C(=O)O (stereo not drawn) [lactic acid]
- growth of strain ENV425 on the substance [1]: grows on

Structure (SMILES): C=C(C)C(=O)O [methacrylic acid]
- growth of strain ENV425 on the substance [1]: grows on

Structure (SMILES): CC(C)(C)O [TBA, tertiary-butyl alcohol]
- % Degraded ([2]; grown on isopropanol): 11%
- % Degraded ([2]; grown on propane): 45%
- degraded % of the added TBA ([2]; propane-grown, within 24 hr): 100%
- % Degraded ([3]; grown on isopropanol): 0%
- % Degraded ([3]; grown on propane): 23%
- % Degraded ([4]; grown on ethanol): 56%
- % Degraded ([4]; grown on propane): 10%

Structure (SMILES): [14CH3]O[14C]([14CH3])([14CH3])[14CH3] [[^14 C]MTBE]
- added [^14 C]MTBE converted to ^14 CO2 ([5]; env425): > 65%
- Percent of added [^14 C] in CO2 fraction ([5]; propane-grown, OD550 5.0, overnight, 0.5 μCi [^14 C]MTBE (2 μM MTBE)): 41%
- Percent of added [^14 C] in particulate fraction [6]: 0%
- Percent of added [^14 C] in CO2 fraction ([6]; mean (SD) of three): 27(2) Percent
- Percent of added [^14 C] in liquid fraction ([6]; mean (SD) of three): 71(2) Percent
- Percent of added [^14 C] in particulate fraction [7]: 0%
- Percent of added [^14 C] in CO2 fraction ([7]; mean (SD) of three): 53(1) Percent
- Percent of added [^14 C] in liquid fraction ([7]; mean (SD) of three): 46(1.5) Percent

Structure (SMILES): COC(C)(C)C [MTBE, methyl-tert-butyl ether]
- % Degraded ([2]; grown on isopropanol): 93%
- % Degraded ([2]; grown on propane): 100%
- degraded % of the added MTBE ([2]; propane-grown, 518 μM (46 ppm) MTBE, within 24 hr): 100%
- transformation of MTBE [8]: about 50%
- no-observable-adverse-effect-level (NOAEL) [9]: 100 mg/kg/day
- MTBE Loss % (volatilization) ([10]; 3/7): 9.6%
- MTBE Loss % (volatilization) ([10]; 3/25): 0.9%
- MTBE Loss % (volatilization) ([10]; 4/1): 6.8%
- MTBE Loss % (volatilization) ([10]; 4/8): 4.6%
- MTBE Loss % (volatilization) ([10]; 4/15): 2.1%
- MTBE Loss % (volatilization) ([10]; Averages): 4.5%
- % Removed ([10]; 1/29, T-101 MTBE 100 mg/l): 96.4%
- % Removed ([10]; 2/2, T-101 MTBE 250 mg/l): 97.9%
- % Removed ([10]; 2/12, T-101 MTBE 240 mg/l): 91.7%
- % Removed ([10]; 2/16, T-101 MTBE 200 mg/l): 95.3%
- % Removed ([10]; 2/19, T-101 MTBE 280 mg/l): 96.1%
- % Removed ([10]; 2/26, T-101 MTBE 410 mg/l): 99.6%
- % Removed ([10]; 3/1, T-101 MTBE 780 mg/l): 96.9%
- % Removed ([10]; 3/4, T-101 MTBE 680 mg/l): 96.5%
- % Removed ([10]; 3/7, T-101 MTBE 770 mg/l): 96.1%
- % Removed ([10]; 3/11, T-101 MTBE 2000 mg/l): 97.0%
- % Removed ([10]; 3/14, T-101 MTBE 1100 mg/l): 92.0%
- % Removed ([10]; 3/18, T-101 MTBE 1900 mg/l): 99.5%
- % Removed ([10]; 3/21, T-101 MTBE 1600 mg/l): 92.5%
- % Removed ([10]; 3/25, T-101 MTBE 1590 mg/l): 97.0%
- % Removed ([10]; 3/28, T-101 MTBE 2000 mg/l): 95.4%
- % Removed ([10]; 4/1, T-101 MTBE 2200 mg/l): 96.8%
- % Removed ([10]; 4/4, T-101 MTBE 2400 mg/l): 98.0%
- % Removed ([10]; 4/8, T-101 MTBE 1700 mg/l): 94.6%
- % Removed ([10]; Avg., T-101 MTBE 1083 mg/l): 96.2%
- Loss of MTBE caused by stripping/volatilization, averaged ([10]; during the demonstration): 4.5%
- influent MTBE degraded ([10]; field and laboratory testing, hydraulic retention time 2.5 to 3.3 days): > 90%
- MTBE removal ([10]; throughout the demonstration, MTBE 40 mg/L to >2000 mg/L): Greater than 90%
- % Degraded ([3]; grown on isopropanol): 71%
- % Degraded ([3]; grown on propane): 67%
- % Degraded ([4]; grown on ethanol): 86%
- % Degraded ([4]; grown on propane): 50%
- degradation by resting cells [11]: not degraded
- degradation by resting cells [12]: not degraded
- MTBE added to the reactor removed ([13]; 2.5 day hydraulic retention time): Greater than 95%
- MTBE stripping from the reactor, of the influent MTBE mass ([13]; typically): < 5%

Structure (SMILES): CCOC(C)(C)C [ETBE, ethyl-tert-butyl ether]
- % Degraded ([2]; grown on isopropanol): 80%
- % Degraded ([2]; grown on propane): 100%
- % Degraded ([3]; grown on isopropanol): 14%
- % Degraded ([3]; grown on propane): 26%
- % Degraded ([4]; grown on ethanol): 31%
- % Degraded ([4]; grown on propane): 0%

Structure (SMILES): CC(C)O [2-propanol]
- growth of strain ENV425 on the substance [1]: does occur

Structure (SMILES): CC(=O)CO [hydroxyacetone]
- growth of strain ENV425 on the substance [1]: does occur

Structure (SMILES): C1CCOC1 [tetrahydrofuran]
- tetrahydrofuran degraded [14]: 100%
- tetrahydrofuran degraded [15]: 100%

Structure (SMILES): CC(O)(CO)C(=O)O (stereo not drawn) [2,3-dihydroxy-2-methyl propionic acid]
- growth of strain ENV425 on the substance [1]: grows on

Structure (SMILES): CC(C)=O [acetone]
- growth of strain ENV425 on the substance [1]: does occur

Structure (SMILES): CC(=O)O [acetic acid]
- growth of strain ENV425 on the substance [1]: does occur
